# Assay results reported in ChEMBL document CHEMBL5321267, “Phomactinine, the First Nitrogen-Bearing Phomactin, Produced by Biatriospora sp. CBMAI 1333” (J Nat Prod, 2023).
# Calls of active or inactive are those of the source. The calls are words filed in the database; no cut-off is given here.
# Target: Platelet-activating factor receptor (Homo sapiens) (UniProt P25105)
# Test: Antagonist activity at PAFR in human KB cells assessed as inhibition of cPAF induced IL-8 release at 10 to 25 uM preincubated for 24 hrs followed by cPAF stimulation and measured after 6 hrs by ELISA method
# Format: functional, cell-based
# Conditions: filed as antagonist, dose 10-25 µM, time 30.0 hrs
# Chain of Platelet-activating factor receptor (Homo sapiens) (P25105 whole entry): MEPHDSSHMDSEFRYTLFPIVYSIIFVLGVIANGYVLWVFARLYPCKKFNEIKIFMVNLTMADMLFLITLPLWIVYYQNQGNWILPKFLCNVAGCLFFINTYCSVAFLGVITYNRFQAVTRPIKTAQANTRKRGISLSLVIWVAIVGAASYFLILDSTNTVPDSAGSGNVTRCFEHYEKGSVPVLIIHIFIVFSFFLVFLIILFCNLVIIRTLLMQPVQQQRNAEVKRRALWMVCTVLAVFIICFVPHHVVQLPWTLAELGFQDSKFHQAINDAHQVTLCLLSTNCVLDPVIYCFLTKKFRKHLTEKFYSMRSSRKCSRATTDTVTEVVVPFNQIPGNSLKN
smiles,measurement,value
C/C1=C\CC[C@@]2(C)O[C@@H]2[C@@]23C(=O)NC=C2[C@@](C)(CC1)[C@H](C)C[C@@H]3O,inhibition,Active
